Laboratory results: US11000033B2, “Ketone or oxime compound, and herbicide” (NISSAN CHEMICAL CORPORATION, priority 2014, dated 2021)

Legend:
Format in all cases: in vivo
transplanted rice plant = assay: Test Example 1: effect on crop, application before weed generation in submerged conditions (symbol a); details: application herbicide amount 320 g/ha
Outline: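 Rice at 2.5 leaf stage transplanted into submerged soil (4 cm depth) sown with three weed species; herbicide applied before weed emergence.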

Setaria viridis = assay: Test Example 5: herbicidal effect by foliage application, plastic box (symbol G); details: 320 g/ha, 3 weeks after application
Outline: (§1)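 Leaf-applied emulsion, water-diluted to a preset herbicide dose, on two-week-old seedlings raised in a 25° C. to 30° C. greenhouse; injury rated at 3 weeks using earlier criteria.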

Scirpus juncoides = assay: Test Example 2: herbicidal activity, application during weed generation in submerged conditions (symbol B); details: Table 23; application herbicide amount 320 g/ha; grade 0-5 by criteria of Test Example 1
Outline: (§2)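 Visual herbicidal ratings, taken three weeks after dosing, reflect post-emergence water-surface application to seedlings at one to two leaves. Conditions: co-sown weeds in alluvial soil flooded to 4 cm, greenhouse held at 25° C. to 30° C.; compound given as water-diluted emulsion at a fixed herbicide amount.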

Abutilon theophrasti = assay: Test Example 4: herbicidal effect by soil treatment (symbol M); details: application herbicide amount 320 g/ha
Outline: (§3)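 Seeds were sown in sterilized diluvial soil, covered with about 1.5 cm of soil, and the soil surface was sprayed with a water-diluted emulsion of the compound at a predetermined rate. Plants grew in a greenhouse at 25° C. to 30° C.; effects were scored visually 3 weeks after application.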

corn = assay: Test Example 5: effect on crop by foliage application, plastic box (symbol c); details: 320 g/ha, 3 weeks after application
Outline: (§4)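 Soil: sterilized diluvial. Container: plastic box, 21 × 13 cm, 7 cm deep. Sowing: spot-like, ~1.5 cm cover. Growth: greenhouse, 25° C. to 30° C.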

Veronica persica = assay: Test Example 4: herbicidal effect by soil treatment (symbol R); details: application herbicide amount 320 g/ha
Outline: as §3

soybean = assay: Test Example 5: effect on crop by foliage application, plastic box (symbol d); details: 320 g/ha, 3 weeks after application
Outline: as §4

Monochoria vaginalis = assay: Test Example 2: herbicidal activity, application during weed generation in submerged conditions (symbol C); details: Table 23; application herbicide amount 320 g/ha; grade 0-5 by criteria of Test Example 1
Outline: as §2

[1] = test system: Echinochloa crus-galli var. crus-galli; assay: Test Example 4: herbicidal effect by soil treatment (symbol H); details: application herbicide amount 320 g/ha
Outline: as §3

Amaranthus retroflexus = assay: Test Example 5: herbicidal effect by foliage application, plastic box (symbol N); details: 320 g/ha, 3 weeks after application
Outline: as §1

Cyperus difformis = assay: Test Example 3: herbicidal effect by foliage application, Wagner pot (symbol E); details: application herbicide amount 320 g/ha
Outline: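 Herbicidal activity was rated three weeks after a foliar spray of diluted emulsion concentrate, applied at a predetermined dose to plants grown for 14 days from seed in waterlogged alluvial soil within a 25–30 °C greenhouse.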

[2] = test system: Echinochloa oryzacola Vasing.; assay: Test Example 1: herbicidal activity, application before weed generation in submerged conditions (symbol A); details: application herbicide amount 320 g/ha
Outline: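 In a flooded pot test with alluvial soil, the emulsion-formulated compound was diluted with water to a predetermined amount and applied to the floodwater immediately on the sowing day. Pots were held in a greenhouse at 25–30 °C for 3 weeks before each weed was rated.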

Structure (SMILES) | Effect grade on crop, a: transplanted rice plant (transplanted rice plant) | G: Setaria viridis, herbicidal effect (criteria of Test Example 1) (Setaria viridis) | Herbicidal effect grade, B: Scirpus juncoides (Scirpus juncoides) | Herbicidal effect grade, M: Abutilon theophrasti (Abutilon theophrasti) | c: corn, effect on crop (criteria of Test Example 1) (corn) | Herbicidal effect grade, R: Veronica persica (Veronica persica) | d: soybean, effect on crop (criteria of Test Example 1) (soybean) | Herbicidal effect grade, C: Monochoria vaginalis (Monochoria vaginalis) | Herbicidal effect grade, H: Echinochloa crus-galli var. crus-galli [1] | N: Amaranthus retroflexus, herbicidal effect (criteria of Test Example 1) (Amaranthus retroflexus) | herbicidal effect on E, grade 0-5 (Cyperus difformis) | Herbicidal effect grade, A: Echinochloa oryzacola Vasing. [2] | G: Setaria viridis, herbicidal effect grade (Setaria viridis) | M (Abutilon theophrasti) herbicidal effect grade (Abutilon theophrasti) | c: corn, effect on crop grade (corn) | d: soybean, effect on crop grade (soybean) | H (Echinochloa crus-galli var. crus-galli) herbicidal effect grade [1] | N: Amaranthus retroflexus, herbicidal effect grade (Amaranthus retroflexus)
CC#Cc1cc(C)c(C2=C(O)CC(CC(C)=O)C2=O)c(C)c1 (stereo not drawn) [7-010] | 5 (Herbicidal ratio of 90% or more (almost completely withered)) | 5 (Herbicidal ratio of 90% or more (almost completely withered)) | 5 (Herbicidal ratio of 90% or more (almost completely withered)) | 4 (Herbicidal ratio of 70% or higher and lower than 90%) | 5 (Herbicidal ratio of 90% or more (almost completely withered)) | 3 (Herbicidal ratio of 40% or higher and lower than 70%) | 3 (Herbicidal ratio of 40% or higher and lower than 70%) | 1 (Herbicidal ratio of 5% or higher and lower than 20%) | 5 (Herbicidal ratio of 90% or more (almost completely withered)) | 1 (Herbicidal ratio of 5% or higher and lower than 20%) | 5 (Herbicidal ratio of 90% or more (almost completely withered)) | 5 (Herbicidal ratio of 90% or more (almost completely withered)) |  |  |  |  |  | 
CON=C(C)CC1CC(OC(=O)N2CCOCC2)=C(c2c(C)cc(-c3ccc(F)c(Cl)c3)cc2C)C1=O (stereo not drawn) [6-093] | 5 (Herbicidal ratio of 90% or more (almost completely withered)) | 5 (Herbicidal ratio of 90% or more (almost completely withered)) | 3 (Herbicidal ratio of 40% or higher and lower than 70%) | 0 (Herbicidal ratio of 5% or lower (almost no effect)) | 5 (Herbicidal ratio of 90% or more (almost completely withered)) | 4 (Herbicidal ratio of 70% or higher and lower than 90%) | 2 (Herbicidal ratio of 20% or higher and lower than 40%) | 3 (Herbicidal ratio of 40% or higher and lower than 70%) | 5 (Herbicidal ratio of 90% or more (almost completely withered)) | 3 (Herbicidal ratio of 40% or higher and lower than 70%) | 4 (Herbicidal ratio of 70% or higher and lower than 90%) | 5 (Herbicidal ratio of 90% or more (almost completely withered)) |  |  |  |  |  | 
CC(=O)CC1CC(O)=C(c2c(C)cc(OCC(F)(F)F)cc2C)C1=O (stereo not drawn) [7-015] | 5 (Herbicidal ratio of 90% or more (almost completely withered)) | 5 (Herbicidal ratio of 90% or more (almost completely withered)) | 0 (Herbicidal ratio of 5% or lower (almost no effect)) | 0 (Herbicidal ratio of 5% or lower (almost no effect)) | 5 (Herbicidal ratio of 90% or more (almost completely withered)) | 0 (Herbicidal ratio of 5% or lower (almost no effect)) | 0 (Herbicidal ratio of 5% or lower (almost no effect)) | 0 (Herbicidal ratio of 5% or lower (almost no effect)) | 5 (Herbicidal ratio of 90% or more (almost completely withered)) | 0 (Herbicidal ratio of 5% or lower (almost no effect)) | 5 (Herbicidal ratio of 90% or more (almost completely withered)) | 5 (Herbicidal ratio of 90% or more (almost completely withered)) |  |  |  |  |  | 
CCc1cc(Br)cc(C)c1C1=C(O)CC(C(C(C)=O)C(=O)OC)C1=O (stereo not drawn) [7-001] | 0 (Herbicidal ratio of 5% or lower (almost no effect)) | 3 (Herbicidal ratio of 40% or higher and lower than 70%) | 0 (Herbicidal ratio of 5% or lower (almost no effect)) | 0 (Herbicidal ratio of 5% or lower (almost no effect)) | 2 (Herbicidal ratio of 20% or higher and lower than 40%) |  | 0 (Herbicidal ratio of 5% or lower (almost no effect)) | 0 (Herbicidal ratio of 5% or lower (almost no effect)) | 4 (Herbicidal ratio of 70% or higher and lower than 90%) | 0 (Herbicidal ratio of 5% or lower (almost no effect)) | 0 (Herbicidal ratio of 5% or lower (almost no effect)) | 0 (Herbicidal ratio of 5% or lower (almost no effect)) |  |  |  |  |  | 
CON=C(C)CC1CC(OC(=O)C2CC2)=C(c2c(C)cc(C)cc2C)C1=O (stereo not drawn) [1-015] | 5 (Herbicidal ratio of 90% or more (almost completely withered)) |  | 4 (Herbicidal ratio of 70% or higher and lower than 90%) |  |  |  |  | 4 (Herbicidal ratio of 70% or higher and lower than 90%) |  |  | 5 (Herbicidal ratio of 90% or more (almost completely withered)) | 5 (Herbicidal ratio of 90% or more (almost completely withered)) | 5 (Herbicidal ratio of 90% or more (almost completely withered)) | 5 (Herbicidal ratio of 90% or more (almost completely withered)) | 5 (Herbicidal ratio of 90% or more (almost completely withered)) | 5 (Herbicidal ratio of 90% or more (almost completely withered)) | 5 (Herbicidal ratio of 90% or more (almost completely withered)) | 4 (Herbicidal ratio of 70% or higher and lower than 90%)
C#CCON=C(C)CC1CC(O)=C(c2c(C)cc(C)cc2C)C1=O (stereo not drawn) [1-019] | 5 (Herbicidal ratio of 90% or more (almost completely withered)) |  | 5 (Herbicidal ratio of 90% or more (almost completely withered)) |  |  |  |  | 2 (Herbicidal ratio of 20% or higher and lower than 40%) |  |  | 5 (Herbicidal ratio of 90% or more (almost completely withered)) | 5 (Herbicidal ratio of 90% or more (almost completely withered)) | 5 (Herbicidal ratio of 90% or more (almost completely withered)) | 4 (Herbicidal ratio of 70% or higher and lower than 90%) | 5 (Herbicidal ratio of 90% or more (almost completely withered)) | 3 (Herbicidal ratio of 40% or higher and lower than 70%) | 5 (Herbicidal ratio of 90% or more (almost completely withered)) | 2 (Herbicidal ratio of 20% or higher and lower than 40%)
